Structures are written as SMILES. Where two headings read alike, the source gives them in different places.

The target in assay [1] is T1, ovine COX-1 (Ovis aries, UniProt P05979).
T1 sequence (P05979 25-600): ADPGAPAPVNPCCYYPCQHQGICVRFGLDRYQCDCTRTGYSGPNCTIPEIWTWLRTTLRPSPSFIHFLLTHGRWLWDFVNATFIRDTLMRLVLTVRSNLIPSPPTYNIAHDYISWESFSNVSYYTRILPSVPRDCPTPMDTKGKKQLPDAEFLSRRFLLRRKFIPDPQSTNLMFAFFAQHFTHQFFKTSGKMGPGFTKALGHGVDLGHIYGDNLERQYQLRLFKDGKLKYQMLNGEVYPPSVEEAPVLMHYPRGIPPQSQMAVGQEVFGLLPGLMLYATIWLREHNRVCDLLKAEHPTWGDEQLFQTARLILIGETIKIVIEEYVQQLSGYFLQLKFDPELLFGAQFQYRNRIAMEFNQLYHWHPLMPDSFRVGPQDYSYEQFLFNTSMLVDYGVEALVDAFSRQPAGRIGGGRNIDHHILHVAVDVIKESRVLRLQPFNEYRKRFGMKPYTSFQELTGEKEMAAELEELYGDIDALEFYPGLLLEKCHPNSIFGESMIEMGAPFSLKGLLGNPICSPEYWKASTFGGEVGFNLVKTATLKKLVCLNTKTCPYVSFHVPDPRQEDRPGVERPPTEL
Description: TLC assay, inhibition of purified ovine COX-1.
Description: (§1) Ovine COX-1 was used because it is very easy to isolate and to purify the enzyme from sheep seminal vesicles, whereas human COX-1 is normally obtained by over expression in an insect cell system and is very difficult to handle and especially to purify. COX-1 from sheep is >90% similar to COX-1 from humans. […] COX-1 was purified from ram seminal vesicles obtained from Oxford Biomedical Research, Inc. (Oxford, Mich.). […] The enzymes obtained after purification were apo (i.e., they lacked the hemprosthetic group).
(§2) Reactions were terminated by solvent extraction in Et2O/CH3OH/1 M citrate, pH 4.0 (30:4:1). The phases were separated by centrifugation at 2000 g-force for 2 minutes and the organic phase was spotted on a TLC plate (obtained from J. T. Baker, Phillipsburg, N.J.). The plate was developed in EtOAc/CH2Cl2/glacial AcOH (75:25:1) at 4° C. Radiolabeled prostanoid products were quantitatively determined with a radioactivity scanner (obtained from Bioscan, Inc., Washington, D.C.).

Assay [2] addresses COX-1 (Homo sapiens, UniProt P23219). Conditions: background; cited from earlier work.
Assay [3] addresses T2, COX-2 (Homo sapiens, UniProt P35354).
T2 sequence (P35354 18-604): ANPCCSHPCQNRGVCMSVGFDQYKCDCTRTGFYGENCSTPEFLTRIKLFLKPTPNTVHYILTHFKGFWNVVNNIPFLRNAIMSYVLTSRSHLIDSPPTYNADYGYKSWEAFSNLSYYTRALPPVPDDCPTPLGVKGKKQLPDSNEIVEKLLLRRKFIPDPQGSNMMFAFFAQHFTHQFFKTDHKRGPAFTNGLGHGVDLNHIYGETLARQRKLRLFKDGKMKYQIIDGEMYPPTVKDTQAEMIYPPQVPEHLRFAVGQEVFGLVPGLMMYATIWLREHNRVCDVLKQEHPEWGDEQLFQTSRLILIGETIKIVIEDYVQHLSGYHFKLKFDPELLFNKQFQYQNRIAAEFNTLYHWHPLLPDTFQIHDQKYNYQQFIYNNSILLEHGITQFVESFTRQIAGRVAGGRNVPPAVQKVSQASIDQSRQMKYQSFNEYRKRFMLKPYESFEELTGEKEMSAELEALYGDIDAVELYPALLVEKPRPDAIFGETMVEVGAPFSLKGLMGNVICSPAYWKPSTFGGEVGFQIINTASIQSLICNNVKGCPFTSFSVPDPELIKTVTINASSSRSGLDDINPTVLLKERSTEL
The note with it: background; cited from earlier work.

Assay [4] deals with T2, COX-2. Description: TLC assay, inhibition of purified human COX-2. Format: biochemical. Conditions: for IC50: human COX-2 (66 nM).
Description: as §1, §2
For assay [5], the system named is carrageenan-induced rat foot pad edema. The assay can be described thus: Rat foot pad edema model (carrageenan). Format: in vivo. Conditions: for 3 hour edema: gavage 1 hour post carrageenan, 6 rats.
Description: Rats were injected with carrageenan, which triggers a rapid edema (swelling) within 3 hours that can be quantitatively measured by volume displacement.
In these experiments, the carrageenan that was injected was in 0.1 mL of aqueous saline so that 0.1 mL volume increase was due to the injection alone. […] More specifically, male Sprague-Dawley rats (150 g) received a subplantar injection of carrageenan (0.1 mL of a 1% suspension of carrageenan in sterile aqueous saline) into the right hind footpad while mildly anesthetized with methoxyflurane. […] The ipsilateral footpad volume (mL) was measured with a water displacement plethysmometer at time=3 hours post-injection and compared to the time=0 pre-injection paw volume for edema calculations.
The mark [6] stands for this setting: read-out: IC50 (μM) COX-1, Table 1 ester derivatives, ovine COX-1 (44 nM), 20 min at rt, then 14C-AA (50 μM) 37° C. 30 sec.
Where [7] appears, read: read-out: IC50 (μM) COX-1, Table 2 amide derivatives, ovine COX-1 (44 nM), 20 min, then 1-14C-AA (50 μM) 37° C. 30 sec.
The mark [8] stands for this setting: Table 2 amide derivatives, 20 min, then 1-14C-AA (50 μM) 37° C. 30 sec.

COX-1, sequence (P23219 24-599): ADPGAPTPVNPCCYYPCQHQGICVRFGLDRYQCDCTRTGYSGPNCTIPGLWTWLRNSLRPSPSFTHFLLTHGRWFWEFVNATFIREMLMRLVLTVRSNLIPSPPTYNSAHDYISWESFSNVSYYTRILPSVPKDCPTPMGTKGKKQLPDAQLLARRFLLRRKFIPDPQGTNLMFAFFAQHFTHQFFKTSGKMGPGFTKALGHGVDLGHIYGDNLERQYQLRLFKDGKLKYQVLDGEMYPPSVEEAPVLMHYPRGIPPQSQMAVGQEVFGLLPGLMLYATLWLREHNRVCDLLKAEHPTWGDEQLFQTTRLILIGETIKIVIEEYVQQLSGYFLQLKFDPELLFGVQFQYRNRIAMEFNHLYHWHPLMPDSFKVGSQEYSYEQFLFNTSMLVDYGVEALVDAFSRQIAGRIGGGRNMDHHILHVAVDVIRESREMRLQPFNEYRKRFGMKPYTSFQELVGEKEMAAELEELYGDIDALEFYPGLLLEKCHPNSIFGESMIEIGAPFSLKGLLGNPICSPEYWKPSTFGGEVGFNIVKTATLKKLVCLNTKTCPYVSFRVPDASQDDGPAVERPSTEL

For `CCCCC#CCOC(=O)Cc1c(C)n(C(=O)c2ccc(Cl)cc2)c2ccc(OC)cc12` [Compound 14, Indomethacin hept-2-ynyl ester], the IC50 in assay [1] is above 66 µM. As for `CCC#CCC(C)OC(=O)Cc1c(C)n(C(=O)c2ccc(Cl)cc2)c2ccc(OC)cc12` (stereo not drawn) [Compound 15, Indomethacin 2-(hept-4-ynyl) ester], the 50% inhibitory concentration (IC50) in assay [1] was above 66 µM.

For `COc1ccc2c(c1)c(CC(=O)OC(C)C)c(C)n2C(=O)c1ccc(Cl)cc1` [Compound 5, Indomethacin isopropyl ester], in assay [1], the IC50 came to 37 µM. As for `CC1=C(CC(=O)O)c2cc(F)ccc2/C1=C\c1ccc(S(C)(=O)=O)cc1` [sulindac sulfone], the “COX-1 inhibition, in words” value in assay [2] was “does not inhibit”. Also, the “COX-2 inhibition, in words” value in assay [3] is “does not inhibit”. Take `Cc1nc(-c2ccccc2)c(-c2ccc(S(N)(=O)=O)cc2)o1` [2-methyl-4-phenyl-5-sulfonamidophenyl oxazolo, reference compound]: the half-maximal inhibitory concentration (IC50) in assay [4] (Table 1 ester derivatives, 20 min at rt, then 14C-AA (50 μM) 37° C. 30 sec) was 0.06 µM; in assay [1], above 66 µM; in assay [1] (setting [6]) it was above 66 µM. In the case of `COc1ccc2c(c1)c(CC(=O)Nc1nc(C)cs1)c(C)n2C(=O)c1ccc(Cl)cc1` [Compound 57, Indomethacin-N-2-(4-methylthiazolyl) amide], the IC50 in assay [1] (setting [7]) is above 66 µM. The molecule `CCCCCCCCOC(=O)Cc1c(C)n(C(=O)c2ccc(Cl)cc2)c2ccc(OC)cc12` [Compound 16, Indomethacin octyl ester] returned a half-inhibitory concentration (IC50) in assay [1] above 66 µM. In the case of `COC(=O)Cc1c(C)n(C(=O)c2ccc(Cl)cc2)c2ccc(OC)cc12` [Compound 2, Indomethacin methyl ester], the IC50 in assay [1] is around 33 µM; in assay [1] (setting [6]), 33 µM. Consider `COc1ccc2c(c1)c(CC(=O)O)c(C)n2C(=O)c1ccc(Cl)cc1` [Indomethacin, reference compound], for which the “reduction in inflammation, in words” value in assay [5] (rat, 2 mg/kg orally) was “comparable reduction in inflammation”. As for `COc1ccc2c(c1)c(CC(=O)Nc1ccc(NC(C)=O)cc1)c(C)n2C(=O)c1ccc(Cl)cc1` [Compound 41, Indomethacin-N-(4-acetamidophenyl) amide], the “3 hour edema” value in assay [5] (Concentration 0.2 mg/mL) came out at 0.55 mL; in assay [5] (Concentration 0.5 mg/mL), 0.47 mL; in assay [5] (Concentration 1.0 mg/mL) it was 0.39 mL; in assay [5] (Concentration 2.0 mg/mL) it was 0.38 mL. Also, the reduction in inflammation in assay [5] (rat, 2 mg/kg orally 1 hour after carrageenan, corrected for 0.1 mL injection volume) was 80-85%.

As to `COc1ccc2c(c1)c(CC(=O)Nc1ccc(Cl)nc1)c(C)n2C(=O)c1ccc(Cl)cc1` [Compound 48, Indomethacin-N-5-((2-chloro)pyridyl) amide], the “Selectivity, ratio of IC50 (COX-1):IC50 (COX-2)” value in assay [4] (Table 2 amide derivatives) is on record as above 1404. For the same molecule, the IC50 in assay [4] (setting [8]) is 0.047 µM; in assay [1] (setting [7]), above 66 µM. For `COc1ccc2c(c1)c(CC(=O)Nc1cc(OC)c(OC)c(OC)c1)c(C)n2C(=O)c1ccc(Cl)cc1` [Compound 46, Indomethacin-N-(3,4,5-trimethoxyphenyl) amide], the “Selectivity, ratio of IC50 (COX-1):IC50 (COX-2)” value in assay [4] (Table 2 amide derivatives) is listed as above 66. Also, the figures for the IC50 in assay [4] (setting [8]) and in assay [1] (setting [7]) were above 1 µM and above 66 µM, respectively.

`COC(=O)[C@H](C)NC(=O)Cc1c(C)n(C(=O)c2ccc(Cl)cc2)c2ccc(OC)cc12` [Compound 52, Indomethacin-N-2-(2-L-methoxycarbonylethyl) amide] showed a half-inhibitory concentration (IC50) in assay [4] (setting [8]) of 0.4 µM. With `COc1ccc2c(c1)c(CC(=O)Oc1ccc3ccccc3c1)c(C)n2C(=O)c1ccc(Cl)cc1` [Compound 25, Indomethacin β-naphthyl ester], the IC50 in assay [1] was above 66 µM. On the same count and under the same terms, in the case of `CCCCCCCOC(=O)Cc1c(C)n(C(=O)c2ccc(Cl)cc2)c2ccc(OC)cc12` [Compound 11, Indomethacin heptyl ester] it was above 66 µM.

Usually IC50 stands for the concentration needed to halve the response being measured.

The values are drawn from patent US6762182B1, “Converting cox inhibition compounds that are not COX-2 selective inhibitors to derivatives that are COX-2 selective inhibitors” (Vanderbilt University, priority 1999, dated 2004).
